This note sets out measurements from US20070092551A1, “Therapeutic agent” (TAKARA BIO INC., priority 2003, published 2007).

Experiment [1] relates to 3T3-L1 cells. Nature of the experiment: Induction of adipocyte differentiation (amount of triglyceride biosynthesis). The format is cell-based. The settings on record: Mus musculus, 3T3-L1, X=(S−N)/(P−N) of amount of triglyceride, P=insulin positive control, read-out: Action for Induction of Differentiation. The procedure:
Induction of adipocyte differentiation was carried out by partially modifying the above-mentioned method of Rubin C. S. et al. In addition, as a test compound, a compound prepared in Examples mentioned above or a commercially available compound was used. 3T3-L1 cells (ATCC CCL-92.1) were suspended in a 10% fetal bovine serum (manufactured by Bio Whittaker)-containing Dulbecco's modified Eagle's medium (manufactured by Sigma, D6046) containing 200 μM ascorbic acid so as to have a density of 4×10^3 cells/mL, and the suspension was put in each well of a 12-well microtiter plate in an amount of 2 ml per well. The cells were cultured at 37° C. for 7 days in the presence of 5% carbon dioxide gas. On the seventh day, the medium was exchanged with a 10% fetal bovine serum (manufactured by Bio Whittaker)-containing Dulbecco's modified Eagle's medium containing 200 μM ascorbic acid and 0.25 μM dexamethasone, and a test compound dissolved in dimethyl sulfoxide in a concentration shown in each of Tables 16 to 19 was added to each well. Here, there were set a group with addition of 4 μL of an aqueous solution containing 5 mg/mL insulin (manufactured by TAKARA BIO INC.) as a positive control, and a group with addition of dimethyl sulfoxide as a negative control. After 45 hours, the medium was exchanged with a 10% fetal bovine serum-containing Dulbecco's modified Eagle's medium containing 200 μM ascorbic acid. A test compound, 2 μL of an aqueous solution containing 5 mg/mL insulin as a positive control, or dimethyl sulfoxide as a negative control was put to each well in the same concentration. The cells were cultured for additional 7 days. In addition, the medium was exchanged on after 2 days and after 5 days, and at that time, a test compound, 2 μL of an aqueous solution containing 5 mg/mL insulin as a positive control, or dimethyl sulfoxide as a negative control was put to each well in the same concentration.
The amount of triglyceride in the adipocytes was determined as an index of induction of differentiation into mature adipocytes, and also, as the evaluation of insulin-mimetic action.
After the termination of the culture, the medium was removed, and the cells were washed twice with a phosphate buffered saline. One milliliter of a solvent of hexane:isopropanol=3:2 was added to the cells. The mixture was allowed to stand at room temperature for 30 minutes, and thereafter the supernatant was collected. The procedures were repeated again, and 2 mL of the supernatant was concentrated to dryness. The precipitate was dissolved in 100 μL of isopropanol, and the amount of triglyceride contained in 10 μL of the solution was determined using a triglyceride E-test (manufactured by Wako Pure Chemical Industries, Ltd., code 432-40201). In addition, all the determinations were carried out twice. The action for induction of differentiation was calculated by the following calculation formula, and shown by four ranks of +++, ++, + and +/−. • S: Amount of triglyceride in the presence of a test compound; • N: Amount of triglyceride in the negative control; and • P: Amount of triglyceride in the positive control; X=(S−N)/(P−N) (Judgment of Action for Induction of Differentiation)

In experiment [2] the test system is mature adipocytes (3T3-L1 cells). Nature of the experiment: Enhancing action on glucose uptake (2-deoxyglucose) into mature adipocytes. It counts as cell-based. The conditions noted are these: Mus musculus, 3T3-L1, X=(S−N)/(P−N) of 2-deoxyglucose uptake, P=insulin 1 μg/mL, read-out: Enhancing Action on Glucose Uptake.

With `COc1ccc(C(=O)/C=C/c2ccc(O)cc2)c(OC(C)=O)c1C/C=C(\C)CCC=C(C)C` [Compound (C064-2), 2′-acetoxy-3′-geranyl-4-hydroxy-4′-methoxychalcone], in experiment [1], the activation at 3 µM is more than 100% and the activation at 10 µM was more than 100%. In addition, in experiment [2], the activation at 3 µM was in the range of 15 to 30%, the activation at 10 µM is 30 to 60% and the activation at 30 µM was more than 100%.
For the compound `CCOC(C)(C)C(O)CC/C(C)=C/Cc1c(O)ccc(C(=O)/C=C/c2ccc(O)cc2)c1O` (stereo not shown) [TB6, 1-[3-(7-ethoxy-6-hydroxy-3,7-dimethyl-2-octenyl)-2,4-dihydroxyphenyl]-3-(4-hydroxyphenyl)-2-propen-1-one], in experiment [1], the activation at 3 µM lay in the range of 15 to 30% and the activation at 10 µM was more than 100%. The activation at 30 µM in experiment [2] is 30 to 60%.
`COc1ccc(C(C)=O)c(O)c1CCC(C)C` [Compound (C041), 2′-hydroxy-3′-(3-methylbutyl)-4′-methoxyacetophenone]: in experiment [1], the activation at 3 µM fell in the range of 30 to 60% and the activation at 10 µM was more than 100%. In experiment [2], the activation at 30 µM was more than 100%.
Take `COc1ccc(C(=O)CCc2ccc(O)cc2)c(O)c1CCC(C)C` [Compound (C033), 1-(2-hydroxy-3-(3-methylbutyl)-4-methoxyphenyl)-3-(4-hydroxyphenyl)-propan-1-one]: in experiment [1], the activation at 3 µM was more than 100% and the activation at 10 µM was more than 100%. In addition, in experiment [2], the activation at 3 µM is 30 to 60%, the activation at 10 µM is 30 to 60% and the activation at 30 µM lay in the range of 60 to 100%.
On to `COc1ccc(C(=O)/C=C/c2ccc(O)cc2)c(O)c1C/C=C(\C)C/C=C/C(C)(C)OO` [TB8, 1-[2-hydroxy-3-(7-hydroperoxy-3,7-dimethyl-2,5-octadienyl)-4-methoxyphenyl]-3-(4-hydroxyphenyl)-2-propen-1-one], for which, in experiment [1], the activation at 3 µM was 30 to 60% and the activation at 10 µM is more than 100%. Besides, in experiment [2], the activation at 3 µM is 15 to 30%, the activation at 10 µM fell in the range of 60 to 100% and the activation at 30 µM was in the range of 60 to 100%.
With `COc1ccc(C(=O)/C=C/c2ccc(OC(C)=O)cc2)c(OC(C)=O)c1CC=C(C)C` [Compound (C032), 4,2′-diacetoxy-3′-prenyl-4′-methoxychalcone], in experiment [1], the activation at 1 µM was 60 to 100%, the activation at 3 µM is more than 100% and the activation at 10 µM was more than 100%. For the same compound, in experiment [2], the activation at 3 µM was more than 100%, the activation at 10 µM was more than 100% and the activation at 30 µM is more than 100%.
As to `COc1ccc(C(C)=O)c(O)c1Cc1ccccc1` [Compound (C055), 2′-hydroxy-3′-benzyl-4′-methoxyacetophenone], in experiment [1], the activation at 3 µM lay in the range of 15 to 30% and the activation at 10 µM lay within 30 to 60%. In experiment [2], the activation at 3 µM fell in the range of 15 to 30%, the activation at 10 µM was 30 to 60% and the activation at 30 µM lay in the range of 60 to 100%.
As to `COc1ccc(C(C)=O)c(O)c1CC=C(C)C` [Compound (C026), 2′-hydroxy-3′-prenyl-4′-methoxyacetophenone], the activation at 1.3 µM in experiment [1] (1.3 μM) was in the range of 30 to 60%. In addition, in experiment [1], the activation at 4 µM is 60 to 100% and the activation at 13 µM lay in the range of 60 to 100%. Besides, in experiment [2], the activation at 3 µM was 15 to 30%, the activation at 10 µM lay within 30 to 60% and the activation at 30 µM was 30 to 60%.
On to `CC(C)=CCC/C(C)=C/Cc1c(OCc2ccccc2)ccc(C(=O)/C=C/c2ccc(O)cc2)c1O` [Compound (C073), 4,2′-dihydroxy-3′-geranyl-4′-benzyloxychalcone], for which the activation at 3 µM in experiment [1] lay in the range of 15 to 30%. In experiment [2], the activation at 3 µM was 15 to 30% and the activation at 10 µM was 15 to 30%.
As for `C=C(C)C(CC/C(C)=C/Cc1c(OC)ccc(C(=O)/C=C/c2ccc(O)cc2)c1O)OO` (stereo not shown) [TB9, 1-[2-hydroxy-3-(6-hydroperoxy-3,7-dimethyl-2,7-octadienyl)-4-methoxyphenyl]-3-(4-hydroxyphenyl)-2-propen-1-one], in experiment [1], the activation at 10 µM is more than 100%. Further, in experiment [2], the activation at 3 µM lay within 15 to 30%, the activation at 10 µM was 15 to 30% and the activation at 30 µM was in the range of 30 to 60%.
`CC(C)=CCc1c(O)ccc(C(=O)/C=C/c2ccc(O)cc2)c1O` [Isobavachalcone]: in experiment [1], the activation at 3 µM lay within 30 to 60% and the activation at 10 µM fell in the range of 60 to 100%. In addition, in experiment [2], the activation at 3 µM lay in the range of 15 to 30%, the activation at 10 µM was in the range of 60 to 100% and the activation at 30 µM is more than 100%.
For `COc1ccc(C(=O)/C=C/c2ccc(Cl)cc2)c(OC(C)=O)c1CC=C(C)C` [Compound (C079), 4-chloro-2′-acetoxy-3′-prenyl-4′-methoxychalcone], in experiment [1], the activation at 3 µM lay in the range of 60 to 100% and the activation at 10 µM was more than 100%. For the same compound, in experiment [2], the activation at 3 µM was more than 100%, the activation at 10 µM lay within 60 to 100% and the activation at 30 µM is more than 100%.
Take `CC(=O)c1ccc(OC2CCCCO2)c(CC=C(C)C)c1O` (stereo not shown) [Compound (C044), 2′-hydroxy-3′-prenyl-4′-tetrahydropyranyloxyacetophenone]: in experiment [1], the activation at 3 µM was 30 to 60% and the activation at 10 µM lay within 60 to 100%. Also, in experiment [2], the activation at 10 µM is 30 to 60% and the activation at 30 µM is more than 100%.
Take `COc1ccc(C(=O)/C=C/c2ccco2)c(O)c1CC=C(C)C` [Compound (FUR-1), 3-(2-furyl)-1-(2-hydroxy-3-prenyl-4-methoxyphenyl)-2-propen-1-one]: in experiment [1], the activation at 1 µM was in the range of 15 to 30%, the activation at 3 µM lay within 30 to 60% and the activation at 10 µM is more than 100%. Moreover, in experiment [2], the activation at 10 µM fell in the range of 15 to 30% and the activation at 30 µM fell in the range of 60 to 100%.
Consider `COc1cc(O)c(C(C)=O)cc1CC=C(C)C` [Compound (C027), 2′-hydroxy-4′-methoxy-5′-prenylacetophenone], for which, in experiment [1], the activation at 4 µM was 15 to 30% and the activation at 13 µM was in the range of 30 to 60%. Besides, in experiment [2], the activation at 10 µM was in the range of 15 to 30% and the activation at 30 µM lay in the range of 30 to 60%.
Turning to `CC(=O)c1ccc(OCC=C(C)C)cc1C` [Compound (C059), 2′-methyl-4′-prenyloxyacetophenone], in experiment [1], the activation at 3 µM was 15 to 30% and the activation at 10 µM was 30 to 60%. The activation at 30 µM in experiment [1] (30 μM) is more than 100%. Moreover, in experiment [2], the activation at 10 µM was in the range of 15 to 30% and the activation at 30 µM was in the range of 30 to 60%.
As to `COc1ccc(/C=C/C(=O)c2ccc(OC)c(CC=C(C)C)c2O)c(O)c1CC=C(C)C` [Compound (C072), 2,2′-dihydroxy-3,3′-diprenyl-4,4′-dimethoxychalcone], in experiment [1], the activation at 3 µM is more than 100% and the activation at 10 µM was more than 100%. Also, the activation at 30 µM in experiment [2] was in the range of 30 to 60%.
As to `CC(C)=CCC/C(C)=C/Cc1c(O)ccc(C(=O)/C=C/c2ccc(Cl)cc2)c1O` [Compound (C074), 4-chloro-2′,4′-dihydroxy-3′-geranylchalcone], in experiment [1], the activation at 3 µM fell in the range of 15 to 30% and the activation at 10 µM lay within 30 to 60%. Moreover, the activation at 30 µM in experiment [2] lay within 30 to 60%.
